According to paper PMC7749390, “Neuroprotective activity of Ulmus pumila L. in Alzheimer's disease in rats; role of neurotrophic factors” (Heliyon, 2020):
In brackets after ≈: the same amount, converted by molar mass. Where two headings read alike, the source gives them in different places.

How the values were obtained:
[1] = biological target: T1, Electric-eel AChE (Electrophorus electricus, UniProt O42275); assay: biochemical; conditions: for inhibition at 6.25 µM: read-out: % Inhibition 6.25μM; for inhibition at 12.5 µM: read-out: % Inhibition 12.5μM; for inhibition at 25 µM: read-out: % Inhibition 25μM; for inhibition at 50 µM: read-out: % Inhibition 50μM
T1 construct: purchased Sigma
Method: The reaction mixture contained 150 μL of (100 mM) sodium phosphate buffer (pH 8.0), 10 μL of 5,5-Dithiobis-(2-nitrobenzoic acid) (DTNB, Sigma), 10 μL of test-extract solution and 20 μL of acetyl cholinesterase solution (Electric-eel AChE- Sigma) were mixed and incubated for 15 min (37 °C) followed by the addition of 10ml of acetylthiocholine (Sigma) to initiate the reaction. Hydrolysis of acetylthiocholine was monitored by the formation of yellow 5-thio-2- nitrobenzoate anion measured by UV- Vis Shimadzu spectrophotometer-USA at a wavelength of 412 nm (15 min).
Statistical analysis: reactions were carried out in triplicates and the data were expressed as mean ± SEM. The inhibitory concentration (IC50) of the total extract and each compound, was graphically evaluated by a non-linear regression method using Graph Pad Prism (Ver. 5.0) software.

[2] = Superoxide anion scavenging assay
[3] = DPPH radical scavenging assay
[4] = table, mean ± SEM, n = 3, read-out: IC50

T1 sequence (O42275 24-633): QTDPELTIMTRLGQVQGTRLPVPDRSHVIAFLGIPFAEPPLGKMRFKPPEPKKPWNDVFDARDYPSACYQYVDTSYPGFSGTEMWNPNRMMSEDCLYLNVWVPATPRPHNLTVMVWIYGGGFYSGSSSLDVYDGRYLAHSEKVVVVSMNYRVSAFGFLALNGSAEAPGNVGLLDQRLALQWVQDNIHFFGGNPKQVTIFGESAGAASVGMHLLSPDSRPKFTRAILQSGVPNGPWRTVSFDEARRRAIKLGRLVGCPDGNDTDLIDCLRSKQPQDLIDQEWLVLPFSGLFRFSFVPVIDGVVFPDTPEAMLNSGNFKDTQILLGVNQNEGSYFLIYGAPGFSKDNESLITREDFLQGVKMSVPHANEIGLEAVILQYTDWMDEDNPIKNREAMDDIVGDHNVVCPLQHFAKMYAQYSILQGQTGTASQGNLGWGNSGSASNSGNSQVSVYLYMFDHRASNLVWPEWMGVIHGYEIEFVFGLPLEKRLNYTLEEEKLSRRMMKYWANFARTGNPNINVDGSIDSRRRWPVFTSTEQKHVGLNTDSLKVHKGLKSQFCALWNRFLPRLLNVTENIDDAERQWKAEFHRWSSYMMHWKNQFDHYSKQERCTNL

Question: With `CN(CCCCCCN(C)C(=O)Oc1ccc[n+](C)c1)C(=O)Oc1ccc[n+](C)c1` [distigmine bromide, reference compound] as the molecule, how does the IC50 [1] read?
Answer: 26.83 ± 0.02 µM

Question: With `O=c1c(O)c(-c2ccc(O)c(O)c2)oc2cc(O)cc(O)c12` [quercetin] as the molecule, how does the “IC50, superoxide anion radical inhibitory activity” value [2] read?
Answer: 45.3 ± 1.6 µg/mL (≈ 150 µM)

Question: Which inhibition at 6.25 µM ([1]; 6.25μM, mean ± SEM, n = 3) does the source give for `Oc1cc(O)c2c(c1)O[C@H](c1ccc(O)c(O)c1)[C@H](O)C2` [Compound 2, (-)-epicatechin] here?
Answer: 4.7 ± 0.7%

Question: And the inhibition at 12.5 µM ([1]; 12.5μM, mean ± SEM, n = 3)?
Answer: 19.6 ± 2.6%

Question: And the inhibition at 25 µM ([1]; 25μM, mean ± SEM, n = 3)?
Answer: 33.7 ± 1.2%

Question: And the inhibition at 50 µM ([1]; 50μM, mean ± SEM, n = 3)?
Answer: 73.6 ± 1.8%

Question: And the IC50 [1, 4]?
Answer: 31.62 ± 0.04 µM

Question: With `O=c1c(O[C@@H]2O[C@H](CO)[C@@H](O)[C@H](O)[C@H]2O)c(-c2ccc(O)cc2)oc2cc(O)cc(O)c12` [Compound 3, kaempferol 3-o-β-D-glucoside] as the molecule, how does the IC50 [1] read?
Answer: 29.03 ± 0.0155 µM

Question: What about the inhibition at 6.25 µM [1] of the same molecule?
Answer: 3.7 ± 0.6%

Question: What about the inhibition at 12.5 µM [1] of the same molecule?
Answer: 14.6 ± 1.2%

Question: And the inhibition at 25 µM [1]?
Answer: 39.4 ± 0.8%

Question: And the inhibition at 50 µM [1]?
Answer: 79.3 ± 0.8%

Question: Which results are given for `CC1OC(OCC2OC(Oc3c(-c4ccc(O)cc4)oc4cc(O)cc(O)c4c3=O)C(O)C(O)C2O)C(O)C(O)C1O` (stereo not shown) [Compound 8, Kaempferol 3-o-robinobioside]?
Answer: inhibition at 6.25 µM ([1]; 6.25μM, mean ± SEM, n = 3): 1.5 ± 0.8%; inhibition at 12.5 µM ([1]; 12.5μM, mean ± SEM, n = 3): 4.4 ± 0.9%; inhibition at 25 µM ([1]; 25μM, mean ± SEM, n = 3): 19.9 ± 1.8%; inhibition at 50 µM ([1]; 50μM, mean ± SEM, n = 3): 59.3 ± 2.9%; IC50 [1, 4]: 43.13 ± 0.13 µM

Question: Which inhibition at 6.25 µM ([1]; 6.25μM, mean ± SEM, n = 3) does the source give for `Oc1cc(O)c2c(c1)OC(c1ccc(O)c(O)c1)C(O)C2` (single isomer, unassigned; (+)) [Compound 1, (+)-catechin] here?
Answer: 4.6 ± 1%

Question: What about the inhibition at 12.5 µM ([1]; 12.5μM, mean ± SEM, n = 3) of the same molecule?
Answer: 16.2 ± 2.4%

Question: What about the inhibition at 25 µM ([1]; 25μM, mean ± SEM, n = 3) of the same molecule?
Answer: 32.5 ± 2.5%

Question: And the inhibition at 50 µM ([1]; 50μM, mean ± SEM, n = 3)?
Answer: 70.3 ± 1.2%

Question: And the IC50 [1, 4]?
Answer: 33.61 ± 0.0295 µM

Question: What does the source list for `O=c1c(O[C@@H]2O[C@H](CO)[C@@H](O)[C@H](O)[C@H]2O)c(-c2ccc(O)c(O)c2)oc2cc(O)cc(O)c12` [Compound 5, quercetin-3-O-β-D-gulucopyranoside]?
Answer: IC50 [1]: 31.72 ± 0.017 µM; inhibition at 6.25 µM [1]: 3.9 ± 1%; inhibition at 12.5 µM [1]: 14.4 ± 0.9%; inhibition at 25 µM [1]: 36.3 ± 1.6%; inhibition at 50 µM [1]: 72.8 ± 2.6%

Question: Which “IC50, free radical scavenging activity (DPPH assay)” value [3] does the source give for `O=C1O[C@H]([C@@H](O)CO)C(O)=C1O` [ascorbic acid] here?
Answer: 5.6 µg/mL (≈ 31.8 µM)
